According to patent US9981954B2, “2-(pyrazin-2-ylcarbonylaminomethyl) benzimidazolium compounds as epithelial sodium channel inhibitors” (Boehringer Ingelheim International GmbH, priority 2015, dated 2018):

Columns and labels:
[1] = molecular target: T1, ENaC (Epithelial Sodium Channel), Mouse kidney M-1 cells (Mus musculus, UniProt Q61180+Q9WU38+Q9WU39); assay: Ussing Chamber assay: inhibition of amiloride sensitive short circuit current in M-1 cells; type: cell-based; details: apical application, 37° C.
T1 construct: Mouse kidney M-1 cells were cultivated in DMEM containing 5% FCS and 5 μM dexamethasone; endogenous in cells; host or cells: Mouse kidney M-1 cells (polarised on transwell filters, dexamethasone-treated)
T1 sequence (Q61180 1-699): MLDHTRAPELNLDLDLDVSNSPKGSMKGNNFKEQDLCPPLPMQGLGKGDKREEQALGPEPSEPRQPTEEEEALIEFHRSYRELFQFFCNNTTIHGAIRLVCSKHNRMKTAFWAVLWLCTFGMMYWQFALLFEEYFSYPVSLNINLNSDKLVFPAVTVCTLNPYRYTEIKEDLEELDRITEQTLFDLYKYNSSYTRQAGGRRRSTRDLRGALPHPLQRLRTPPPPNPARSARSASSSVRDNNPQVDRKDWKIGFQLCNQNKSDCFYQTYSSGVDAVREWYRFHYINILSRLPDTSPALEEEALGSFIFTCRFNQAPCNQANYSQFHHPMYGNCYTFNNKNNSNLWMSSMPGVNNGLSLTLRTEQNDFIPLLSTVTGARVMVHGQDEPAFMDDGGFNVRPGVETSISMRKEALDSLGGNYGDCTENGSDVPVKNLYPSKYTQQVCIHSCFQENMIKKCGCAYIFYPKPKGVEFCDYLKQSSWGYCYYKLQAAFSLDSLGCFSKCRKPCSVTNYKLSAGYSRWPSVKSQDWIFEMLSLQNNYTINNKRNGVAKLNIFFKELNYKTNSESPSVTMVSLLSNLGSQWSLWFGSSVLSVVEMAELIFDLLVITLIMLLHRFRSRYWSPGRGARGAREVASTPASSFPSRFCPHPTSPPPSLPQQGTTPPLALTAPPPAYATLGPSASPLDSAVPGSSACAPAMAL
T1 sequence (Q9WU38 1-638): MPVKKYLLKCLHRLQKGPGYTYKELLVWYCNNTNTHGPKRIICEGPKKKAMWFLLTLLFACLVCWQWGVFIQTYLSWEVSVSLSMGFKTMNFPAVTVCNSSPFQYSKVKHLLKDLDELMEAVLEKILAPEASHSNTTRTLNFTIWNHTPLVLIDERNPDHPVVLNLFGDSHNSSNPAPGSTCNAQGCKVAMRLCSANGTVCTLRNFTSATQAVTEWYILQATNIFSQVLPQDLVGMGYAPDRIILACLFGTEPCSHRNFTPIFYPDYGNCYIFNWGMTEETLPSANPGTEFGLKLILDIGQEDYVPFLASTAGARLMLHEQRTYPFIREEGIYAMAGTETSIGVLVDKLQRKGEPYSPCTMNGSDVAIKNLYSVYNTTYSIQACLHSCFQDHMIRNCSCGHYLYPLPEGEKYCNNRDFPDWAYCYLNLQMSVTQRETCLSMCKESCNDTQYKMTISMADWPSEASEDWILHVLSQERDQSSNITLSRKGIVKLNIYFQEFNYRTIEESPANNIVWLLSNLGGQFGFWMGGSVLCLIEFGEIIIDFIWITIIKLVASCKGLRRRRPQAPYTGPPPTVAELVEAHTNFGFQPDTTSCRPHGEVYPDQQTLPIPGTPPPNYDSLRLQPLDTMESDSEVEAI
T1 sequence (Q9WU39 1-655): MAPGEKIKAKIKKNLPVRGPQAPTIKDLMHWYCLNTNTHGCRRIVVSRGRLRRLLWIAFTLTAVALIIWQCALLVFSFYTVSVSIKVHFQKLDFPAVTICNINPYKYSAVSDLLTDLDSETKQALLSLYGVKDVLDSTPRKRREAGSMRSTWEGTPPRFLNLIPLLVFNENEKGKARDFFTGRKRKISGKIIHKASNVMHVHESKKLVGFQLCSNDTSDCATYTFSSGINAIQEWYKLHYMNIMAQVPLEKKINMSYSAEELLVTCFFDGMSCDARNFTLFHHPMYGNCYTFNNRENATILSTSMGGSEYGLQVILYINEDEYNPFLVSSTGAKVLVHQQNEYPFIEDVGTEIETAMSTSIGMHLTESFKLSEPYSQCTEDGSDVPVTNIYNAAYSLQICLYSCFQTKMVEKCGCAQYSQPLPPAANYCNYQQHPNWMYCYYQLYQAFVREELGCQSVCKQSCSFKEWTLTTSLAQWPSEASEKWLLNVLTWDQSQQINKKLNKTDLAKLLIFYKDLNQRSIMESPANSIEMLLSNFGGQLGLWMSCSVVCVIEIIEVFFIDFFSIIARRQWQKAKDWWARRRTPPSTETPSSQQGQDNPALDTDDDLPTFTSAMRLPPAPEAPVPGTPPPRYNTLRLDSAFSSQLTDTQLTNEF
Description: Ussing Chamber: Mouse kidney M-1 cells were cultivated in DMEM containing 5% FCS and 5 μM dexamethasone for 10 to 12 days on polyester transwell filters. Filters were inserted into a teflon-coated well-plate which fit into the ussing chamber system. Prior to measurement the medium of M-1 cells was replaced with Caco-2 transport buffer (Invitrogen, Germany). During measurements, the Ussing chamber temperature was kept at 37° C. Short circuit currents (I_sc) were measured in the voltage-clamp mode with the software package Lab View for data acquisition and analysis. The transepithelial electrical resistance (TEER) was determined by the application of voltage steps of ±5 mV every 5 sec. Compounds were administered at a final concentration of 3 μM or at increasing concentrations (1-3-10 μM) to the apical solution. At the end of each experiment the amiloride sensitive I_SC was measured by adding 3 μM amiloride to the apical compartment. Results are expressed as inhibition in percent of the amiloride effect or as IC50.

[2] = Permeability in CALU-3 cells; type: in vitro ADME; details: human, CALU-3 monolayers, pH 7.4, 37° C., 10 μM compound
Description: Permeability in CALU-3 Cells:
Permeability measurements across polarized, confluent CALU-3 cell monolayers grown on permeable filter supports are used to provide information on the potential of a compound to pass the lung epithelium.
CALU-3 cells (1-2×10^5 cells/l cm^2 area) are seeded on filter inserts (Costar transwell polycarbonate filters, 0.4 μm pore size) and cultured (for 10-12 days DMEM) until tight monolayers are formed. Compounds of interest are dissolved in appropriate solvent (DMSO, 10 mM stock solution). […] The transport solution (TL) is applied to the apical or basolateral donor side for measuring A-B or B-A permeability (3 filter replicates), respectively. The receiver side contains the same buffer as the donor side. After 30 min of accommodation, samples are collected at the start t0=0 min and at the end of the experiment tn=90 min from the donor and at 0, 30, 60, and 90 min also from the receiver chamber. Volume removed is […] by HTP-4 buffer. The compound concentration in the samples is measured by HPLC-MS/MS or scintillation counting. The permeability coefficient (Papp) and efflux ratio are calculated according to: Papp [cm/s]=(concentration receiver [nM]*volume receiver [mL]/time interval [sec])*(1/filter area)*(1/donor concentration [nM]).

## CCn1c(CNC(=O)c2nc(Cl)c(N)nc2N)[n+](CC(=O)NCCN(C)C)c2ccc(OC)cc21.O=C(O)C(F)(F)F.O=C([O-])C(F)(F)F [Example 3.06]
[1]
  IC50: 8 nM
[2]; apical-to-basal
  Papp A→B at 90 min, 10 μM: 0.1 ×10⁻⁶ cm/s
[2]; basal-to-apical
  Papp B→A at 90 min, 10 μM: 0.03 ×10⁻⁶ cm/s
